Here are results for one compound from patent US20040024033A1 (priority 1998, published 2004).

For data set [1], the system named is human KB-8511 epidermoid carcinoma. Type of data set: in vivo, female BALB/c nude mice. On the procedure:
(§1) Female or male BALB/c nu/nu (nude) mice are kept under sterile conditions (10 to 12 mice per Type III cage) with free access to food and water. Mice weigh between 20 and 25 grams at the time of tumor implantation. Tumors are established by subcutaneous injection of cells (minimum 2×10^6 cells in 100 μl PBS or medium) in carrier mice (4-8 mice per cell line). The resulting tumors are serially passaged for a minimum of three consecutive transplantations prior to start of treatment. Tumor fragments (approx. 25 mg) are implanted s.c. into the left flank of animals with a 13-gauge trocar needle while the mice are exposed to Forene (Abbott, Switzerland) anesthesia.
(§2) Tumor growth and body weights are monitored once or twice weekly. All treatments are administered intravenously (i.v.) and are initiated when a mean tumor volume of approximately 100 to 250 mm^3 is attained, depending upon the tumor type. Tumor volumes are determined using the formula […] (see Cancer Chemother. Pharmacol. 24:148-154, [1989]). Treatments with epothilone B vary the dose and the frequency of administration. Comparator agents are administered according to previously determined optimal treatment regimens. In addition to presenting changes in tumor volumes over the course of treatment, antitumor activity is expressed as T/C% (mean increase of tumor volumes of treated animals divided by the mean increase of tumor volumes of control animals multiplied by 100). Tumor regression (%) represents the smallest mean tumor volume compared to the mean tumor volume at the start of treatment, according to the formula Regression (%)=(1−Vend/Vstart)×100 (Vend=final mean tumor volume, Vstart=mean tumor volume at the start of treatment. Any animals in which the tumor has reached a size exceeding approximately 1.5 to 2.5 cm^3 are sacrificed. Details can be found below.
Tumor fragments of approximately 25 mg are implanted into the left flank of each female nude mouse (n=8 per group). Treatments are started on day 13 after tumor transplantation. epothilone B is administered once at 4 mg/kg, i.v. on day 13, or once per week at 4, 2 or 1 mg/kg, i.v., (on days 13, […] and 27). TAXOL® is administered i.v. at 20 mg/kg/day, every second day for 5 treatments (days 13, 15, 17, 19 and 21). Antitumor activity is expressed as T/C% (mean increase of tumor volumes of treated animals divided by the mean increase of tumor volumes of control animals multiplied by 100). Tumor regression (%) represents the final mean tumor volume compared to the mean tumor volume at the start of treatment. Changes (Δ) in Tumor volumes represent the tumor volume on the last treatment day minus the tumor volume on the first treatment day. Statistical analyses on Δ tumor volumes uses Dunnett's test to compare treatment groups to controls. […]

A short description of data set [2]: GLP toxicology study in dogs. Type of data set: in vivo. Conditions: dog. On the procedure:
The starting dose level is 0.3 mg/m^2. This dose is calculated as one-third of the toxic dose low (TDL) in the most sensitive species studied which, for epothilone B, is the dog. […] Using a factor of 20 to convert mg/kg in the dog to mg/m^2 in humans, this starting dose is calculated as: […]

Data set [3] deals with human COLO 205 colon tumors. The data set is classed as in vivo, female BALB/c nude mice. Conditions: 4 mg/kg, day 32. On the procedure: as §1, §2
Tumor fragments of approximately 25 mg are implanted into the left flank of each female nude mouse (n=7 per group); a subcutaneous estrogen pellet is placed on the opposite flank. Treatments are started on day 14 after tumor transplantation. epothilone B is administered at 4 mg/kg, i.v., either once or once per week (days 14, 21, 28) or every second week (days 14 and 28). 5-fluorouracil is administered i.v. at 75 mg/kg on days 14, 21, 28. Data presented are from animals surviving to day 32, four days after the last treatments. Antitumor activity is expressed as T/C% (mean increase of tumor volumes of treated animals divided by the mean increase of tumor volumes of control animals multiplied by 100). Tumor regression (%) represents the final mean tumor volume compared to the mean tumor volume at the start of treatment. Changes (A) in tumor volumes represent the tumor volume on the last treatment day minus the tumor volume on the first treatment day.

The nature of data set [4]: Two-week intravenous comparative toxicity study in mice. The data set is classed as in vivo, normal female BALB/c mice. On the procedure:
In order to assess the sub-chronic intravenous toxicity of epothilone B, a non-GLP two-week i.v. toxicity study in non-tumor bearing, normal female BALB/c mice is conducted, involving analysis of mortality, clinical signs, body weight, food consumption, hematology, clinical biochemistry, urinalysis, and organ weights as well as macro and microscopic examinations. The study is based on two different dosing regimens of epothilone B of 3 mg/kg and 10 mg/kg, respectively, administered on days 1 and 8 (8 animals per group). Half of the animals are killed on day 15 (main group) and necropsy is performed. For the other half (recovery group) a recovery period of 5 weeks is allowed after administration of the second dose before sacrifice and subsequent necropsy on day 43.

The mark [5] stands for this setting: 3 mg/kg i.v. on days 1 and 8, day 15.
[6] abbreviates: 10 mg/kg i.v. on days 1 and 8, day 15.

SMILES strings stand for the structures. Where two headings read alike, the source gives them in different places.

`C/C(=C\c1csc(C)n1)[C@@H]1C[C@@H]2O[C@]2(C)CCC[C@H](C)[C@H](O)[C@@H](C)C(=O)C(C)(C)[C@@H](O)CC(=O)O1` [epothilone B]: the “mice with undetectable tumors at the end of the experiment” value in data set [1] (2 mg/kg/week) was 1/8; in data set [1] (4 mg/kg/week), 5/8. In data set [1] (4 mg/kg, i.v. once per week), the “% Body Weight Change” value is recorded as −5±7%. For the same compound, the T/C result in data set [1] (4 mg/kg, i.v. once per week) is recorded as “Regres-”; in data set [3] (i.v. every 7 days), “Regres-”; in data set [3] (i.v. every 14 days), “Regres-”; in data set [3] (i.v. once), “Regres-”. Further, the “toxic dose low (TDL)” value in data set [2] (most sensitive species, estimated) is about 0.5 mg/kg. In data set [2] (0.1 mg/kg, repeated once 3 weeks later (lower of the 2 doses)), the Mortalities result is reported as “no mortalities”. In addition, the “Mortalities throughout the treatment period (days 1-14)” value in data set [4] (3 mg/kg i.v. on days 1 and 8) is reported as “No mortalities”; in data set [4] (10 mg/kg i.v. on days 1 and 8) it was “No mortalities”. For the same compound, the figures for the “Atrophy of the thymus (microscopic)” value in data set [4] (setting [5]) and in data set [4] (setting [6]) were “moderate” and “marked”, respectively. Also, the “Hematology: leukocytes” value is on record as “reduction in the number of leukocytes” in data set [4] (setting [5]); “reduction in the number of leukocytes” in data set [4] (10 mg/kg i.v. on days 1 and 8, day 15, effect more pronounced). For the same compound, the “Sternal bone marrow, microscopic” value is “minimal to slight erythroid and myeloid atrophy” in data set [4] (setting [5]); “minimal to slight myeloid hypoplasia” in data set [4] (setting [6]). Further, the “Survival of the recovery group” value in data set [4] (3 mg/kg i.v. on days 1 and 8, to day 43) was “all animals of the recovery group survive until the end of the study”. In addition, the Body weight entry in data set [4] (3 mg/kg i.v. on days 1 and 8, treatment period) is “body weight loss at the 3 mg/kg dose is only apparent in the second week”; in data set [4] (10 mg/kg i.v. on days 1 and 8, first and second week) it was “Body weight loss is observed for all animals”. For the same compound, the “Spleen, microscopic” value in data set [4] (setting [6]) is on record as “minimal lymphoid atrophy”. In data set [4] (both dose levels (3 and 10 mg/kg), day 15), the “Intestinal mucosa (small and large intestine), microscopic” value is “Minimal single cell necrosis”.
